Test results as given in publication PMC7261188 (Nucleic Acids Research, 2020).

Biological target: SFTSV CBD (cap-binding domain of SFTSV L protein) (Severe fever with thrombocytopenia syndrome virus, UniProt I0DF35)
Test: biochemical

SFTSV CBD (cap-binding domain of SFTSV L protein), sequence (I0DF35 1695-1810 limits assumed): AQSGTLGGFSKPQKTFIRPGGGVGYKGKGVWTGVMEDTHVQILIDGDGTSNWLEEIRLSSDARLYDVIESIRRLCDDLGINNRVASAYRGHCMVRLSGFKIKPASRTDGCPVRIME

`C[n+]1cn([C@@H]2O[C@H](COP(=O)(O)OP(=O)(O)OP(=O)(O)O)[C@@H](O)[C@H]2O)c2nc(N)[nH]c(=O)c21` [m^7GTP] showed a Kd of about 138 µM.
